From patent US12565494B2, “Inhibitors of human respiratory syncytial virus and metapneumovirus” (priority 2022, dated 2026)
Like-named read-outs stand apart in the source and are kept apart here.

Experiments:
RSV-A2-GFP virus = assay: microbe, parasite or virus in culture; type: cell-based, Human Respiratory Syncytial Virus; conditions: Calu-1 cells, RSV-A2-GFP MOI=1.2, 96 hrs, GFP-expressing cells counted
Protocol: To set up the assay, ARF vials were thawed in a 37° C. water bath and a control compound was resuspended in assay media DMEM (Dulbecco's Modified Eagle Medium) containing 2% FBS, 100 U/ml Penicillin-Streptomycin.
GFP sequence was derived from pJTI™ R4 Dest CMV N-EmGFP pA Vector (Invitrogen) and was cloned into the intergenic sequence between wild-type RSV-A2 P and M genes using standard recombineering techniques. Recombinant RSV-A2-GFP was propagated in Hep2 cells (human cells contain HeLa marker chromosomes and were derived via HeLa contamination, ATCC CCL-23) with a Multiplicity of Infection (MOI) of 0.1. Virus was harvested 3 days after infection by collecting all culture material and then freeze-thawing the mixture for 5 minutes. Working virus stocks were generated by thawing frozen viral cultures in 37° C. water bath, which were centrifuged at 218 g for 15 min at 4° C. 1/10 of 10×SPG (Biological Industries 06-3061-01-5A) were added and then mixed. The supernatant was aliquoted, frozen in liquid nitrogen, and then transferred to a −80° C. freezer for storage. Virus titer was determined by automated plaque assay in HEp-2 cells following methods described previously (Wen Z. et al.; 2019).
Calu-1 cells were purchased from ATCC (Cat #HTB-54) and were expanded in growth media (DMEM containing 10% FBS, 100 U/ml Penicillin-Streptomycin). To make ARF, cell culture media was removed and discarded and the cell layer was briefly rinsed with PBS to remove serum. 2.5 mL of TrypLE Express solution were added and cells incubated until dislodged, to which growth media was added and the cells were resuspended by gentle pipetting. Cells were counted for concentration and viability as determined by ViCell. Cells were centrifuged at RT, 300 g for 5 minutes to pellet cells. The supernatant was gently aspirated and the pellet was flicked to loosen cells. Cells were resuspended in an appropriate volume of freezing medium (DMEM containing 10% DMSO, 10% FBS, 100 U/ml Penicillin-Streptomycin) to achieve a concentration of 5×10^6 cells/mL. 1 mL aliquots of the cell suspension were transferred to freezing vials. The vials were put into an upright container in a −80° C. freezer overnight before transferring vials to liquid nitrogen for storage
Assay ready freeze-down (ARF, generation described separately) Calu-1 cells (ATCC HTB-54) were used. Compound plates were prepared by dispensing compounds dissolved in DMSO into the wells of a 384 well Corning® 3985 plate with an ECHO acoustic dispenser and compounds were tested in 10-point serial 3-fold dilution. […] To set up the assay, ARF vial(s) were thawed in a 37° C. water bath and were then resuspended into assay media (DMEM containing 2% FBS, 100 U/ml Penicillin-Streptomycin). Cells were counted using default parameters on ViCell and diluted to 20,000 cells/mL in assay media. RSV-A2-GFP virus was added to cells at 24,000 pfu/ml (MOI=1.2) and mixed by gentle inversion. 10 μL/well of 100% DMSO was dispensed as CellTiter-Glo (CTG) assay Max_E controls wells. The cells were dispensed at 50 μL/well using Bravo with 50 μL filtered tips into compound plates. Plates were covered with MicroClime lids, loaded with 7.5 mL of assay media to minimize evaporation, and were incubated at 37° C. and 5% CO2 for 96 hrs. Following incubation, distinct, GFP-expressing cells were counted using an Acumen imaging system with appropriate settings. A same-well CTG assay was performed by adding 10 μL/well reconstituted CellTiter-Glo reagent (Promega G7573) and plates were read on PerkinElmer Envision according to manufacturer's instructions. Raw data were loaded and analyzed in ActivityBase. Antiviral IC50 and cytotoxicity CC50 values were determined using a 4 parameter logistic fit based on the Levenberg-Marquardt algorithm. Model: 205-4 Parameter Logistic.

hMPV-GFP virus = assay: microbe, parasite or virus in culture; type: cell-based, Human Metapneumovirus; conditions: VERO cells, hMPV-GFP MOI=1.25, 48 hrs, GFP-expressing cells counted
Protocol: GFP expressing rgHMPV #3 p3 was generated in Dr. Buchholz's lab (Biacchesi S. et al., J Virol. 2007 June; 81(11): 6057-6067) and propagated in VERO cells (ATCC Cat #CCL-81) with a Multiplicity of Infection (MOI) of 0.1. Virus was harvested 4 days after infection by collecting cultured material and was freeze-thaw cycled in liquid nitrogen twice. Working virus stocks were generated from thawing frozen samples in 37° C. water bath, which were centrifuged at 218 g for 15 min at 4° C. 1/10 of 10×SPG (Biological Industries 06-3061-01-5A) were added and then mixed. The supernatant was aliquoted, frozen in liquid nitrogen, and then transferred to a −80° C. freezer for storage. Virus titer was determined by performing titration test in 96-well plates and calculate approximate virus titer using GFP event/well data.
Compound plates were prepared by dispensing compounds dissolved in DMSO into wells of a 384 well Corning 3985 polystyrene flat clear bottom optical imaging microplate (202.5 nL/well) using an ECHO acoustic dispenser. Each compound was tested in 10-point serial 3-fold dilution (typical final concentrations: 40,300 nM-2 nM). […] Continuous culture of VERO cells was maintained in complete culture media (OptiMEM supplemented with 2 mM GlutaMAX™ and 100 U/ml Penicillin-Streptomycin). To set up the assay, VERO cells were trypsinized with 0.25% Trypsin-EDTA until cells were dislodged, then cells were re-suspended with 1 mL FBS. Cells were spundown at 300 g for 5 minutes and cells were washed twice with culture media and counted using default parameters on ViCell. Cells were then diluted to 100,000 cells/mL (5,000 cells/50 μL) in complete culture media+TrypLE Select (80 μL/mL). hMPV-GFP virus was added to cells at 125,000 pfu/mL (MOI=1.25) and were mixed by gentle inversion. 10 μL/well of 100% DMSO was dispensed to CellTiter-Glo (CTG) assay Max_E controls wells. Cells were dispensed at 50 μL/well using Bravo and 50 μL filtered tips into compound plates. Plates were covered with MicroClime lids and loaded with 7.5 mL of assay media to minimize evaporation. Plates were lightly shaken for 10 minutes at room temperature and then incubated at 37° C. and 5% CO2 for 48 hrs. Following incubation, distinct GFP-expressing cells were counted using an Acumen imaging system with appropriate settings. A same-well CTG assay was performed by adding 10 μL/well reconstituted CellTiter-Glo reagent (Promega G7573) and plates were read on PerkinElmer Envision according to manufacturer's instructions. Raw data were loaded and analyzed in ActivityBase. Antiviral IC50 and cytotoxicity CC50 values were determined using a 4 parameter logistic fit based on the Levenberg-Marquardt algorithm. Model: 205-4 Parameter Logistic.

[1] = Table I Summary of Activities for RSV, read-out: RSV EC50
[2] = Table II Summary of Activities for hMPV, read-out: RSV EC50
[3] = human respiratory syncytial virus, Calu-1, 96 h, read-out: RSV EC50, Table I Summary of Activities for RSV
[4] = Vero, 48 h, read-out: RSV EC50, Table II Summary of Activities for hMPV

SMILES	EC50 (RSV-A2-GFP virus; [1]) [nM]	EC50 (hMPV-GFP virus; [2]) [nM]	EC50 (RSV-A2-GFP virus; [3]) [nM]	EC50 (hMPV-GFP virus; [4]) [nM]
Cc1nc(-c2ccon2)sc1C(=O)N1C[C@@H]2[C@H](C1)[C@H]2Oc1cc(C(C)(C)N)cc(-c2ccc(F)cc2)n1 [Example 5, ((1R,5S,6s)-6-((4-(2-aminopropan-2-yl)-6-(4-fluorophenyl)pyridin-2-yl)oxy)-3-azabicyclo[3.1.0]hexan-3-yl)(2-(isoxazol-3-yl)-4-methylthiazol-5-yl)methanone]	< 10	10 to 100		
Cc1nc(-c2nccs2)sc1C(=O)N1C[C@@H]2[C@H](C1)[C@H]2Oc1cc(C(C)(C)N)cc(-c2ccc(F)cc2)n1 [Example 6, ((1R,5S,6s)-6-((4-(2-aminopropan-2-yl)-6-(4-fluorophenyl)pyridin-2-yl)oxy)-3-azabicyclo[3.1.0]hexan-3-yl)(4-methyl-[2,2′-bithiazol]-5-yl)methanone]	< 10	> 100		
Cc1nc(-c2cscn2)sc1C(=O)N1C[C@@H]2[C@H](C1)[C@H]2Oc1cc(C(C)(C)N)cc(-c2ccc(F)cc2)n1 [Example 7, ((1R,5S,6s)-6-((4-(2-aminopropan-2-yl)-6-(4-fluorophenyl)pyridin-2-yl)oxy)-3-azabicyclo[3.1.0]hexan-3-yl)(4-methyl-[2,4′-bithiazol]-5-yl)methanone]	< 10	10 to 100		
CC(C)(N)c1cc(O[C@H]2[C@@H]3CN(C(=O)c4sc(-c5cscn5)nc4C4CC4)C[C@@H]32)nc(-c2ccc(F)cc2)c1 [Example 8, ((1R,5S,6s)-6-((4-(2-aminopropan-2-yl)-6-(4-fluorophenyl)pyridin-2-yl)oxy)-3-azabicyclo[3.1.0]hexan-3-yl)(4-cyclopropyl-[2,4′-bithiazol]-5-yl)methanone]	< 10	10 to 100		
Cc1nc(-c2ncc[nH]2)sc1C(=O)N1C[C@@H]2[C@H](C1)[C@H]2Oc1cc(C(C)(C)N)cc(-c2ccc(F)cc2)n1 [Example 9, (2-(1H-imidazol-2-yl)-4-methylthiazol-5-yl)((1R,5S,6s)-6-((4-(2-aminopropan-2-yl)-6-(4-fluorophenyl)pyridin-2-yl)oxy)-3-azabicyclo[3.1.0]hexan-3-yl)methanone]	< 10	> 100		
Cc1nc(-c2ncn[nH]2)sc1C(=O)N1C[C@@H]2[C@H](C1)[C@H]2Oc1cc(C(C)(C)N)cc(-c2ccc(F)cc2)n1 [Example 10, ((1R,5S,6s)-6-((4-(2-aminopropan-2-yl)-6-(4-fluorophenyl)pyridin-2-yl)oxy)-3-azabicyclo[3.1.0]hexan-3-yl)(4-methyl-2-(1H-1,2,4-triazol-5-yl)thiazol-5-yl)methanone]	< 10	> 100		
CCc1nc(-c2nc[nH]n2)sc1C(=O)N1C[C@@H]2[C@H](C1)[C@H]2Oc1cc(C(C)(C)N)cc(-c2ccc(F)cc2)n1 [Example 11, ((1R,5S,6s)-6-((4-(2-aminopropan-2-yl)-6-(4-fluorophenyl)pyridin-2-yl)oxy)-3-azabicyclo[3.1.0]hexan-3-yl)(4-ethyl-2-(1H-1,2,4-triazol-3-yl)thiazol-5-yl)methanone]	< 10	> 100		
Cc1nc(-c2cccs2)sc1C(=O)N1C[C@@H]2[C@H](C1)[C@H]2Oc1cc(C(C)(C)N)cc(-c2ccc(F)cc2)n1 [Example 12, ((1R,5S,6s)-6-((4-(2-aminopropan-2-yl)-6-(4-fluorophenyl)pyridin-2-yl)oxy)-3-azabicyclo[3.1.0]hexan-3-yl)(4-methyl-2-(thiophen-2-yl)thiazol-5-yl)methanone]	< 10	> 100		
Cc1nc(-c2ccco2)sc1C(=O)N1C[C@@H]2[C@H](C1)[C@H]2Oc1cc(C(C)(C)N)cc(-c2ccc(F)cc2)n1 [Example 13, ((1R,5S,6s)-6-((4-(2-aminopropan-2-yl)-6-(4-fluorophenyl)pyridin-2-yl)oxy)-3-azabicyclo[3.1.0]hexan-3-yl)(2-(furan-2-yl)-4-methylthiazol-5-yl)methanone]	< 10	10 to 100		
CC(C)(N)c1cc(O[C@H]2[C@@H]3CN(C(=O)c4sc(-c5cscn5)nc4C(F)F)C[C@@H]32)nc(-c2ccc(F)cc2)c1 [Example 14]			< 10	> 100
CC(C)(N)c1cc(O[C@H]2[C@@H]3CN(C(=O)c4sc(-c5ncco5)nc4C(F)F)C[C@@H]32)nc(-c2ccc(F)cc2)c1 [Example 15, ((1R,5S,6s)-6-((4-(2-aminopropan-2-yl)-6-(4-fluorophenyl)pyridin-2-yl)oxy)-3-azabicyclo[3.1.0]hexan-3-yl)(4-(difluoromethyl)-2-(oxazol-2-yl)thiazol-5-yl)methanone]	< 10	> 100		
Cn1nc(-c2ncco2)cc1C(=O)N1C[C@@H]2[C@H](C1)[C@H]2Oc1cc(C(C)(C)N)cc(-c2ccc(F)cc2)n1 [Example 17, ((1R,5S,6s)-6-((4-(2-aminopropan-2-yl)-6-(4-fluorophenyl)pyridin-2-yl)oxy)-3-azabicyclo[3.1.0]hexan-3-yl)(1-methyl-3-(oxazol-2-yl)-1H-pyrazol-5-yl)methanone]			< 10	10 to 100
Cn1nc(-c2cscn2)cc1C(=O)N1C[C@@H]2[C@H](C1)[C@H]2Oc1cc(C(C)(C)N)cc(-c2ccc(F)cc2)n1 [Example 18, ((1R,5S,6s)-6-((4-(2-aminopropan-2-yl)-6-(4-fluorophenyl)pyridin-2-yl)oxy)-3-azabicyclo[3.1.0]hexan-3-yl)(1-methyl-3-(thiazol-4-yl)-1H-pyrazol-5-yl)methanone]			< 10	10 to 100
